The source of these data is patent US20250382239A1, “COMPOSITIONS FOR ENHANCING NITROGEN FERTILIZERS BY INCORPORATING ANTI-OXIDANT MOIETIES AND METHODS FOR USE THEREOF” (Verdesian Life Sciences U.S., LLC, priority 2022, published 2025).

For this experiment, the system named is urease enzyme. In words: Draeger tube NH3 volatilization screening of urease inhibitor compositions applied on urea prills on soil. Also noted: NH3 Draeger tube reading: unit not given here. To be noted: for urease enzyme inhibitory properties: exposed to soil alone or in combination with urea-containing fertilizer. On the procedure:
tBHQ (main active ingredient (AI)), solvents, additives (co-Actives) were obtained from commercial vendors. Draeger tube protocol was developed and used soils from NCSU Ag research facility at Oxford, North Carolina. Samples were prepared by co-dissolution in the appropriate solvent by rolling on a sample roller for 2-4 hours at ambient temperature and allowed to stand over weekend to make sure there was no haziness and/or precipitate that developed. Typical sample size was 4-4.5 g in a 12 mL cylindrical glass vial.
The following candidates were tBHQ+[x co-Active+y Solvent] where x and y varied.

Regarding `NC(N)=O` [Urea], the “NH3 Draeger tube reading” value (Round 10 (Table 11), 18 hrs) was 0; the “NH3 Draeger tube reading” value (Round 10 (Table 11), 24 hrs) is reported as 0; the “NH3 Draeger tube reading” value (Round 10 (Table 11), 42 hrs) is listed as 125; the “NH3 Draeger tube reading” value (Round 10 (Table 11), 48 hrs) turned out to be 150; the “NH3 Draeger tube reading” value (Round 10 (Table 11), 66 hrs) came to 150; the “NH3 Draeger tube reading” value (Round 10 (Table 11), 90 hrs) came out at 150. The “NH3 Draeger tube reading” value was 150 (Round 10 (Table 11), 120 hrs); 150 (Round 10 (Table 11), 187 hrs); 150 (Round 10 (Table 11), 210 hrs); 150 (Round 10 (Table 11), 266 hrs); 150 (Round 10 (Table 11), 288 hrs); 150 (Round 10 (Table 11), 330 hrs). The “NH3 Draeger tube reading” value stood at 150 (Round 10 (Table 11), 354 hrs); 150 (Round 10 (Table 11), 381 hrs); 150 (Round 10 (Table 11), […]); 0 (Round 11 (Table 12), 16 hrs); 0 (Round 11 (Table 12), 24 hrs); 12 (Round 11 (Table 12), 40 hrs). Further, the “NH3 Draeger tube reading” value by setting is: (Round 11 (Table 12), 48 hrs) 36; (Round 11 (Table 12), 64 hrs) 125.4; (Round 11 (Table 12), 88 hrs) 150; (Round 11 (Table 12), 160 hrs) 150; (Round 11 (Table 12), 184 hrs) 150; (Round 11 (Table 12), 232 hrs) 150. The “NH3 Draeger tube reading” value reads like this: (Round 11 (Table 12), 256 hrs) 150; (Round 11 (Table 12), […]) 150; (Round 12 (Table 13), 15 hrs) 0; (Round 12 (Table 13), 23 hrs) 0; (Round 12 (Table 13), 39 hrs) 31; (Round 12 (Table 13), 48 hrs) 118. Besides, the “NH3 Draeger tube reading” value is listed as 150 (Round 12 (Table 13), 66 hrs); 150 (Round 12 (Table 13), 90 hrs); 150 (Round 12 (Table 13), 111 hrs); 150 (Round 12 (Table 13), 159 hrs); 150 (Round 12 (Table 13), 192 hrs); 150 (Round 12 (Table 13), 216 hrs). Besides, the “NH3 Draeger tube reading” value is, setting by setting: (Round 12 (Table 13), 239 hrs) 150; (Round 12 (Table 13), 260 hrs) 150; (Round 12 (Table 13), 283 hrs) 150; (Round 12 (Table 13), 304 hrs) 150; (Round 12 (Table 13), 327 hrs) 150; (Round 12 (Table 13), 357 hrs) 150. Also, the “NH3 Draeger tube reading” value (Round 12 (Table 13), 375 hrs) worked out at 150 and the “NH3 Draeger tube reading” value (Round 12 (Table 13), […]) came out at 150.

As for `Oc1ccc(O)cc1` [hydroquinone, reference compound], the “urease enzyme inhibitory properties” value is listed as “significantly less efficacious urease enzyme inhibition properties”.

In the case of `CC(C)(C)c1cc(O)ccc1O` [tert-butylhydroquinone], the “urease enzyme inhibitory properties” value is recorded as “strong urease enzyme inhibitory properties”.
